# Source: patent publication US11000574B2, “Hyaluronic acid containing compositions for prevention of the formation of post-surgical scars and post-surgical adhesions” (PERGAMUM AB, priority 2009, dated 2021)
# Bridge positions count the residues as written; N and C are the ends. Peptide text beside a SMILES is read from it.
# Key:
# [1] = test system: post-surgical intra-abdominal adhesions; experiment: Sidewall defect-cecum abrasion model in rat (post-surgical adhesion prevention); type: in vivo, Sprague-Dawley rats; conditions: for adhesion formation compared with control group: rat, 6 days after surgery
# Protocol: Female Sprague-Dawley rats (200-250 g, Charles River Laboratories, Sulzfeldt, Germany) were kept in a 12 hours light-dark cycle and were cared for in accordance with regulations for the protection of laboratory animals. The study was performed after prior approval from the local ethical committee.
# Cecum abrasion and excision of the abdominal wall were performed to induce de novo adhesions as described previously (Harris et al. 1995. Analysis of the kinetics of peritoneal adhesion formation in the rat and evaluation of potential antiadhesive agents. Surgery 117, 663-669). Briefly, the rats were anaesthetized with isoflurane (Isoba®vet, Shering-Plough Animal Health, Farum, Denmark) and buprenorfin (48 microg/kg, Temgesic, Shering-Plough, Brussels, Belgium) was given as post-operative pain reliever. A 5-cm-long midline incision of the abdomen was performed and a rectangle full thickness injury (5 mm×25 mm) was made on the peritoneal wall through both the parietal peritoneum and the muscular fascia. Also, an area of the serous membrane on the both sides of the cecum, approximately 10 mm×15 mm, was gently rubbed using cotton gauze until petechial hemorrhages appeared. The rats were randomized to untreated control group or treated groups. Excessive blood from the injury was removed and the test substance was applied over the abraded areas using a syringe. The laparotomy wound was closed with a continuous suture and the skin was closed with metal clips (Appose ULC35W, TycoHealthcare Group LP, Norwalk, Conn., US). […] The abdomen was opened and the adhesions were scored by an evaluator blinded to the treatment. The incidence of adhesions between abdominal incision and the abraded cecum was quantified as a percentage of animals developing wall to wall adhesions connecting these injuries, in each group. […] Finally, the percentage of rats free from any abdominal adhesions was assessed in each group. Any possible signs of peritoneal inflammation (erythema and/or edema) or disrupted wound healing were recorded in connection to the necropsies. […]
# [2] = In vitro release of PXL01 from sodium hyaluronate gel; type: physicochemical; conditions: 6 mg/ml PXL01 in 1.5% sodium hyaluronate, 37° C., PBS pH 7.4, within 1 hour
# Protocol: (§1) PXL01 dissolved in sodium chloride solution was added to 2.5% sodium hyaluronate solution at a volume ratio of 2/5 PXL01 solution and 3/5 sodium hyaluronate solution, to obtain 1.5 or 6 mg/ml PXL01 in 1.5% sodium hyaluronate. The solutions were homogenized by drawing the mixtures several times through 2.1 mm diameter needles.
# 0.25 ml of the formulated product was placed into the well of the tissue culture plate (24-Flat Well Tissue Culture Plate, Techno Plastic Products AG), resulting in a thin film of approximately 1.3 mm. The plates were placed into thermostat (37° C.) for 1 h to allow the product to reach the temperature of 37° C. 0.5 ml of the release medium (PBS, pH 7.4) re-equilibrated at 37° C. was carefully layered over the surface of the gel and the tissue culture plates were transferred into a thermostatic shaker (60 rpm, 37° C.). At predetermined time intervals, 10 microl aliquots of the aqueous solution were withdrawn from the release media. The concentration of PXL01 released was monitored at wavelength of 230 nm using a spectrophotometric measurement. Because the measurement of absorbance at 230 nm could detect the peptide as well as dissolved sodium hyaluronate in the release medium, a control release medium was used which has the same amount of sodium hyaluronate without any PXL01 as that of sodium hyaluronate with the drug.
# [3] = Solubility and stability of PXL01 in sodium hyaluronate; type: physicochemical
# Protocol: as §1
# PXL01 concentration and homogeneity in sodium hyaluronate were determined by high performance liquid chromatography with UV detector (Agilent model 1100) at 220 nm. The analytical column used was a Vydac 218TP (C18, 5 μm, 250×4.6 mm). The mobile phases used (0.1% TFA in water containing 1% acetonitrile (solvent A) and 0.1% TFA in acetonitrile (solvent B)) were run at a gradient with a flow rate of 1.0 ml/min. Diluted PXL01 standards were applied to create calibration curves.
# Samples were prepared by adding hyaluronidase solution (Hyaluronidase from Streptomyces hyalurolyticus, Sigma-Aldrich, St Louis, Mo.) with an enzyme activity of 500 units/ml to sample solutions. The mixtures were agitated for 2 h at room temperature and samples were diluted as needed with TFA in water, followed by additional mixing. The samples were centrifuged at 7000 rpm for 5 min before injection to the column.
structure (smiles),measurement,setting,value
CC[C@H](C)[C@H](NC(=O)[C@@H]1CSSC[C@H](NC(=O)[C@H](CCCCN)NC(=O)[C@@H](NC(=O)[C@H](C)NC(=O)[C@H](CCC(=O)O)NC(C)=O)[C@@H](C)O)C(=O)N[C@@H](Cc2ccccc2)C(=O)N[C@@H](CCC(N)=O)C(=O)N[C@@H](Cc2c[nH]c3ccccc23)C(=O)N[C@@H](CCC(N)=O)C(=O)N[C@@H](CCCNC(=N)N)C(=O)N[C@@H](CC(N)=O)C(=O)N[C@@H](CCSC)C(=O)N[C@@H](CCCNC(=N)N)C(=O)N[C@@H](CCCCN)C(=O)N[C@@H](C(C)C)C(=O)N[C@@H](CCCNC(=N)N)C(=O)NCC(=O)N2CCC[C@H]2C(=O)N2CCC[C@H]2C(=O)N[C@@H](C(C)C)C(=O)N[C@@H](CO)C(=O)N1)C(=O)N[C@@H](CCCCN)C(=O)N[C@@H](CCCNC(=N)N)C(N)=O [PXL01] (Ac-EATKCFQWQRNMRKVRGPPVSCIKR-NH2; disulfide 5-22),adhesion formation compared with control group,"[1]; 3 mg of PXL01 in water solution, single dose in connection to the surgery",No significant reduction
same,adhesion formation compared with control group,"[1]; 3 doses of 1 mg of PXL01 in water solution (at operation, 24 and 48 h post-surgery)",marked reduction
same,"adverse events (listlessness, peritoneal inflammation, inhibition of wound healing)",[1]; rats treated with PXL01 at any concentration,No obvious adverse events
same,PXL01 released from the sodium hyaluronate gel formulation (cumulative drug released),[2],approximately 70%
same,solubility in sodium hyaluronate,[3],readily soluble
same,stability in sodium hyaluronate,[3],sufficiently stable
